Laboratory results published in paper PMC6934663, “Genomic and functional gene studies suggest a key role of beta-carotene oxygenase 1 like (bco1l) gene in salmon flesh color” (Scientific Reports, 2019).

Target: T1, Bco1l (Salmo salar, UniProt A0A1S2X8G0)
T1 construct: the ssa11 copy is truncated), expressed in carotenoid-producing E. coli XL1-Blue, 528 aa
T1 sequence (A0A1S2X8G0 1-528): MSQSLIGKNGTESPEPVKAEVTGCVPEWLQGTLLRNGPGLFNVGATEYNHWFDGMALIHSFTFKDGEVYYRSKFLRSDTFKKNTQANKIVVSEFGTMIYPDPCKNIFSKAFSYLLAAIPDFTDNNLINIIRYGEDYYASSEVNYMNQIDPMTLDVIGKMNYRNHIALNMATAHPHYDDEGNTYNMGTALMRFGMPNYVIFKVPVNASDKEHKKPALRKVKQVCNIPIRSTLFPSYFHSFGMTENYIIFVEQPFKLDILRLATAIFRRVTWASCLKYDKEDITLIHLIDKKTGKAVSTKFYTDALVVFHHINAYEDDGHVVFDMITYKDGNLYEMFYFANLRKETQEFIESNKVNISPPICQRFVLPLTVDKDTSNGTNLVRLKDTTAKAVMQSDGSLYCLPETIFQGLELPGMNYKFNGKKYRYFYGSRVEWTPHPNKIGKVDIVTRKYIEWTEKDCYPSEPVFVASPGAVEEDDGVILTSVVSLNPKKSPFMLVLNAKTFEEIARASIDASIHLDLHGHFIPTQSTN
Assay: HPLC of cleavage products in beta-carotene-producing E. coli
Assay type: cell-based
Settings: E. coli co-expression, IPTG 0.2 mM, 16 h at 25 °C in darkness; 15,15' oxidative cleavage

## CC1=C(/C=C/C(C)=C/C=C/C(C)=C/C=C/C=C(C)/C=C/C=C(C)/C=C/C2=C(C)CCCC2(C)C)C(C)(C)CCC1 [beta-carotene]
  HPLC of cleavage products in beta-carotene-producing E. coli: The results showed that Bco1l cleaved beta-carotene (Fig. 6A).
